Results: BindingDB's records for doi:10.1016/j.bmcl.2010.04.113 (Merck Serono, 2010)

Assay: Antagonist activity at human CXCR3 expressed in mouse L1.2 cells assessed as inhibition of IP10-induced chemotaxis after 4 hrs

Row | IC50 [nM] | SMILES
1 | 940 | O=C(NCC1CC1)c1ccc(CN(Cc2cccc(Cl)c2)S(=O)(=O)c2ccc(Cl)cc2)cc1 [4-((4-chloro-N-(3-chlorobenzyl)phenylsulfonamido)methyl)-N-(cyclopropylmethyl)benzamide]
2 | 85 | O=C(NCc1cccc(Cl)c1)c1ccc(CN(Cc2ccccn2)S(=O)(=O)c2ccc(Cl)cc2)cc1 [4-((4-chloro-N-(pyridin-2-ylmethyl)phenylsulfonamido)methyl)-N-(3-chlorobenzyl)benzamide]
3 | 1080 | N#Cc1ccc(S(=O)(=O)N(Cc2ccc(C(=O)O)c(F)c2)Cc2ccccn2)cc1 [4-((4-cyano-N-(pyridin-2-ylmethyl)phenylsulfonamido)methyl)-2-fluorobenzoicacid]
4 | 5580 | O=C(NCC1CC1)c1ccc(CN(Cc2ccccc2)S(=O)(=O)c2ccc(OC(F)(F)F)cc2)cc1 [4-((N-benzyl-4-(trifluoromethoxy)phenylsulfonamido)methyl)-N-(cyclopropylmethyl)benzamide]
5 | 1980 | O=C(NCC1CC1)c1ccc(CN(Cc2ccccc2)S(=O)(=O)c2ccc(Cl)cc2)cc1 [4-((N-benzyl-4-chlorophenylsulfonamido)methyl)-N-(cyclopropylmethyl)benzamide]
6 | 2940 | O=C(O)c1ccc(CN(Cc2ccccc2)S(=O)(=O)c2ccc(Cl)cc2)cc1 [4-((N-benzyl-4-chlorophenylsulfonamido)methyl)benzoicacid]
7 | 673 | CCOc1ccc(S(=O)(=O)N(Cc2ccccc2)Cc2ccc(C(=O)NCC3CC3)cc2)cc1 [4-((N-benzyl-4-ethoxyphenylsulfonamido)methyl)-N-(cyclopropylmethyl)benzamide]
8 | 697 | COc1ccc(S(=O)(=O)N(Cc2ccccc2)Cc2ccc(C(=O)NCC3CC3)cc2)cc1 [4-((N-benzyl-4-methoxyphenylsulfonamido)methyl)-N-(cyclopropylmethyl)benzamide]
9 | 6440 | COc1ccc(S(=O)(=O)N(Cc2ccccc2)Cc2ccc(C(=O)O)cc2)cc1 [4-((N-benzyl-4-methoxyphenylsulfonamido)methyl)benzoicacid]
10 | 440 | O=S(=O)(c1ccc(Cl)cc1)N(Cc1ccc(-c2nnn[nH]2)c(F)c1)Cc1ccccn1 [4-chloro-N-(3-fluoro-4-(1H-tetrazol-5-yl)benzyl)-N-(pyridin-2-ylmethyl)benzenesulfonamide]
11 | 911 | O=S(=O)(c1ccc(Cl)cc1)N(CCc1cc2ccccc2cn1)Cc1ccc(-c2nnn[nH]2)cc1 [N-(4-(1H-tetrazol-5-yl)benzyl)-4-chloro-N-(2-(isoquinolin-3-yl)ethyl)benzenesulfonamide]
12 | 540 | CCOc1ccc(S(=O)(=O)N(Cc2ccc(-c3nnn[nH]3)cc2)Cc2ccccn2)cc1 [N-(4-(1H-tetrazol-5-yl)benzyl)-4-ethoxy-N-(pyridin-2-ylmethyl)benzenesulfonamide]
13 | 254 | CC(C)(C)c1nc(CCN(Cc2ccc(-c3nnn[nH]3)cc2)S(=O)(=O)c2ccc(Cl)cc2)no1 [N-(4-(1H-tetrazol-5-yl)benzyl)-N-(2-(5-tert-butyl-1,2,4-oxadiazol-3-yl)ethyl)-4-chlorobenzenesulfonamide]
14 | 1150 | COc1ccc(S(=O)(=O)N(Cc2ccc(C(=O)NCC3CC3)cc2)Cc2cccnc2)cc1 [N-(cyclopropylmethyl)-4-((4-methoxy-N-(pyridin-3-ylmethyl)phenylsulfonamido)methyl)benzamide]
15 | 347 | COc1ccc(S(=O)(=O)N(Cc2ccccc2)Cc2ccc(C(=O)NCc3ccccc3)cc2)cc1 [N-benzyl-4-((N-benzyl-4-methoxyphenylsulfonamido)methyl)benzamide]
